From PubChem BioAssay (NCI)
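Following 48 hours of exposure in 96-well plates, responses at five concentrations were used to interpolate endpoints linearly. Abbreviation: GI50, concentration required for 50% inhibition of growth. TGI: total growth inhibition.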

What was measured:
Experiment in all cases: growth of human tumour cells (NCI), 48 h
HT29 colon = test system: HT29 colon
NCI-H226 lung = test system: NCI-H226 lung
A498 renal = test system: A498 renal
PC-3 prostate = test system: PC-3 prostate
SK-MEL-5 melanoma = test system: SK-MEL-5 melanoma
UACC-62 melanoma = test system: UACC-62 melanoma
HOP-62 NSCLC = test system: HOP-62 NSCLC
SR leukemia = test system: SR leukemia
NCI-H522 lung = test system: NCI-H522 lung
MOLT-4 leukemia = test system: MOLT-4 leukemia

SMILES	GI50 (HT29 colon) [µM]	TGI (HT29 colon) [µM]	GI50 (NCI-H226 lung) [µM]	TGI (NCI-H226 lung) [µM]	GI50 (A498 renal) [µM]	TGI (A498 renal) [µM]	GI50 (PC-3 prostate) [µM]	TGI (PC-3 prostate) [µM]	GI50 (SK-MEL-5 melanoma) [µM]	TGI (SK-MEL-5 melanoma) [µM]	GI50 (UACC-62 melanoma) [µM]	TGI (UACC-62 melanoma) [µM]	GI50 (HOP-62 NSCLC) [µM]	TGI (HOP-62 NSCLC) [µM]	GI50 (SR leukemia) [µM]	TGI (SR leukemia) [µM]	GI50 (NCI-H522 lung) [µM]	TGI (NCI-H522 lung) [µM]	GI50 (MOLT-4 leukemia) [µM]	TGI (MOLT-4 leukemia) [µM]
COc1ccc2c(c1)O/C(=C\c1ccc([N+](=O)[O-])o1)C2=O	0.452	1.92	3.44	23.6	1.74	4.54	2.14	> 25.5	1.56	3.08	1.59	3.54	2.05	6.56	0.178	0.964	1.25	2.57	2.13	8.26
Nc1nc(=O)c2[nH]cnc2n1O		> 100		> 100		> 100		> 100		> 100		> 100		> 100		> 100		> 100		> 100
C/C(=N\NC(=O)c1cccc(S(=O)(=O)N2CCN(C)CC2)c1)c1cc(Cl)ccc1O	0.397	20.1	0.713	8.42	40.6	> 100	1.18	> 100	1.29	3.87	0.873	6.4	0.461	37.3	0.383	> 52.9	1.26	> 72.7	0.47	> 49.4
C=C(c1ccc(OC)c(/C=C/C(=O)c2cc(OC)c(OC)c(OC)c2)c1)c1cc(OC)c(OC)c(OC)c1	0.628	3.15	1.41	3.29	1.48	3.11	1.3	5.31	1.18	2.5	0.498	2.16	2.27	6.68	0.46	8.79	1.1	5.63	1.61	27
COc1ccc2nc(-c3ccc(Cl)cc3)cc(-c3nnc(SCC(=O)Nc4ccc(/C(C)=N\O)cc4)o3)c2c1	1.4	5.54	3.86	14.4	2.94	11	1.29	2.97	1.71	7.52	2.89	9.93	1.63	7	1.72	> 50	1.2	3.83	2.18	> 50
CC/C=C\C[C@H](O)C/C=C1/C(=O)C=C[C@@H]1C/C=C\CCCC(=O)OCCS(=O)(=O)c1ccccc1	3.29	8.54	2.69	6.39	19.1	35.5	3.83	10.9	1.99	4.06	2.48	6.29	3.47	10.5	2.87	13.2	1.76	4.13	2.83	13.4
COc1ccccc1CN=C1NC(=O)/C(=C/c2ccc3ncccc3c2)S1	8.45	> 25	8.43	> 25	4.49	15.8	18.5	> 25	12.4	> 21.5	8.61	> 25	7.64	> 20.2	1.87	> 17.9	4.96	13	8.17	> 19
CC(/C=C/C=C\C=C\C=C(/C)C(=O)NC(C)CO)=C\C(C)C(O)/C(C)=C/C(C)CCc1ccccc1 (stereo not drawn)		25.2		26.5		26.7		25.2		15.5		25.6		37.5		> 59		17.6		55.6
Cc1ccc(C(=O)Nc2ccc(CN3CCN(C)CC3)c(C(F)(F)F)c2)cc1C#Cc1cnc(N)c2ccc(C#N)cc12	0.211		0.471	> 50	0.133	49.3	2.09	13.8	0.331	6.1	0.0212	3.64	1.7	22.9	0.135		0.605	> 25.2	0.105	> 12
COc1ccc(/C=C(/C(=O)N2CCN(c3ccc(C)cc3)CC2)c2cc(OC)c(OC)c(OC)c2)cc1N	0.339	> 39.2	0.352	> 100	0.0571	2.3	0.312	> 100	0.228	0.661	0.362	> 100	0.474	> 100	0.238	> 100	0.168	> 100	0.437	> 100
Nc1c(C(=O)c2cccc(C(O)(CO)CO)c2)cnn1-c1ccc(F)cc1	> 25	> 25	> 25	> 25	> 25	> 25	> 25	> 25	> 25	> 25	> 25	> 25	> 25	> 25	> 25	> 25	> 25	> 25	> 25	> 25
C/C(=N\N)C(CN1CCCCC1)C(c1ccccc1)c1c(O)c2ccccc2oc1=O (stereo not drawn)		> 100		> 100		> 100		> 100		> 100		> 100		> 100		> 100		> 100		> 100
Cc1cc(NCCCNc2ccnc3cc(Cl)ccc23)nc(Nc2ccc(C(=O)N3CCCCC3)cc2)n1	2.33	7.2	21.8	36.9	1.89	5.07	3.9	14.4	1.93	3.34	2.02	3.81	2.4	7.43	1.72	4.24	2.19	4.45	2.86	13.5
C=C(C)[C@@H]1CC[C@]2(C(=O)N3CCN(C)CC3)CC[C@]3(C)[C@H](CC[C@@H]4[C@@]5(C)C/C(=C/c6ccncc6)[C@H](O)C(C)(C)[C@@H]5CC[C@]43C)[C@@H]12	1.88	11.2	7.01	28.9	17.4	41.1	2.75	16.7	5.98	18.5	10.2	27.9	10.1	24.7	2.72	10.2	5.24	25	2.36	11
